Measurements as given in the supplement of paper PMC10307832.

Experiments:
Assay in all cases: relative viability (nuclei count vs DMSO), 5 days (fraction); higher = more cells survive
[1] = system: 201T
Summary of the method: (§1)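 Lung cancer cell lines in 1536-well plates got either a single drug or a fixed anchor-drug dose together with five library-drug doses (not always all listed) in √10 steps, by pin tool, on the day after seeding. Nuclei were counted after 5 days, and relative viability is the treated-to-vehicle ratio of nuclei counts. Values are medians of duplicate plates.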

[2] = system: A-427
Summary of the method: as §1

[3] = system: COR-L23
Summary of the method: as §1

[4] = system: HARA
Summary of the method: as §1

[5] = system: HCC-78
Summary of the method: as §1

[6] = system: LCLC-103H
Summary of the method: as §1

[7] = system: LCLC-97TM1
Summary of the method: as §1

[8] = system: LK-2
Summary of the method: as §1

[9] = system: LOU-NH91
Summary of the method: as §1

[10] = system: LXF-289
Summary of the method: as §1

[11] = system: NCI-H1650
Summary of the method: as §1

[12] = system: NCI-H1651
Summary of the method: as §1

[13] = system: NCI-H1793
Summary of the method: as §1

[14] = system: NCI-H2347
Summary of the method: as §1

[15] = system: NCI-H23
Summary of the method: as §1

[16] = system: NCI-H2405
Summary of the method: as §1

[17] = system: NCI-H520
Summary of the method: as §1

[18] = system: NCI-H522
Summary of the method: as §1

[19] = system: NCI-H647
Summary of the method: as §1

[20] = system: NCI-H838
Summary of the method: as §1

[21] = system: PC-3 [JPC-3]
Summary of the method: as §1

[22] = system: RERF-LC-KJ
Summary of the method: as §1

[23] = system: UMC-11
Summary of the method: as §1

CN1CCN(CCOc2cc(OC3CCOCC3)c3c(Nc4c(Cl)ccc5c4OCO5)ncnc3c2)CC1 [Saracatinib] + O=C(CCCCCCC(=O)Nc1ccccc1)NO [Vorinostat] (partner 1 µM)
relative viability ([1]; first compound 0.02 µM): 0.971
relative viability ([1]; first compound 0.2 µM): 0.868
relative viability ([1]; first compound 0.6325 µM): 0.799
relative viability ([1]; first compound 2 µM): 0.658
relative viability ([2]; first compound 0.02 µM): 0.899
relative viability ([2]; first compound 0.2 µM): 0.852
relative viability ([2]; first compound 0.6325 µM): 0.795
relative viability ([2]; first compound 2 µM): 0.863
relative viability ([3]; first compound 0.02 µM): 0.361
relative viability ([3]; first compound 0.2 µM): 0.41
relative viability ([3]; first compound 0.6325 µM): 0.469
relative viability ([3]; first compound 2 µM): 0.406
relative viability ([4]; first compound 0.02 µM): 0.505
relative viability ([4]; first compound 0.2 µM): 0.654
relative viability ([4]; first compound 0.6325 µM): 0.62
relative viability ([4]; first compound 2 µM): 0.572
relative viability ([5]; first compound 0.02 µM): 0.459
relative viability ([5]; first compound 0.6325 µM): 0.476
relative viability ([5]; first compound 2 µM): 0.427
relative viability ([6]; first compound 0.02 µM): 0.868
relative viability ([6]; first compound 0.2 µM): 0.733
relative viability ([6]; first compound 0.6325 µM): 0.846
relative viability ([6]; first compound 2 µM): 0.762
relative viability ([7]; first compound 0.02 µM): 0.775
relative viability ([7]; first compound 0.2 µM): 0.411
relative viability ([7]; first compound 0.6325 µM): 0.839
relative viability ([7]; first compound 2 µM): 0.554
relative viability ([8]; first compound 0.02 µM): 0.353
relative viability ([8]; first compound 0.2 µM): 0.317
relative viability ([8]; first compound 0.6325 µM): 0.224
relative viability ([8]; first compound 2 µM): 0.234
relative viability ([9]; first compound 0.02 µM): 0.87
relative viability ([9]; first compound 0.2 µM): 0.696
relative viability ([9]; first compound 0.6325 µM): 0.903
relative viability ([9]; first compound 2 µM): 0.628
relative viability ([10]; first compound 0.02 µM): 0.78
relative viability ([10]; first compound 0.2 µM): 0.573
relative viability ([10]; first compound 0.6325 µM): 0.773
relative viability ([10]; first compound 2 µM): 0.715
relative viability ([11]; first compound 0.02 µM): 0.654
relative viability ([11]; first compound 0.2 µM): 0.377
relative viability ([11]; first compound 0.6325 µM): 0.548
relative viability ([11]; first compound 2 µM): 0.492
relative viability ([12]; first compound 0.02 µM): 0.598
relative viability ([12]; first compound 0.2 µM): 0.547
relative viability ([12]; first compound 0.6325 µM): 0.598
relative viability ([12]; first compound 2 µM): 0.554
relative viability ([13]; first compound 0.02 µM): 0.878
relative viability ([13]; first compound 0.2 µM): 0.482
relative viability ([13]; first compound 0.6325 µM): 0.842
relative viability ([13]; first compound 2 µM): 0.601
relative viability ([14]; first compound 0.02 µM): 0.558
relative viability ([14]; first compound 0.2 µM): 0.413
relative viability ([14]; first compound 0.6325 µM): 0.719
relative viability ([14]; first compound 2 µM): 0.622
relative viability ([15]; first compound 0.02 µM): 0.539
relative viability ([15]; first compound 0.6325 µM): 0.658
relative viability ([15]; first compound 2 µM): 0.442
relative viability ([16]; first compound 0.02 µM): 0.89
relative viability ([16]; first compound 0.2 µM): 0.788
relative viability ([16]; first compound 0.6325 µM): 0.847
relative viability ([16]; first compound 2 µM): 0.441
relative viability ([17]; first compound 0.02 µM): 0.652
relative viability ([17]; first compound 0.2 µM): 0.471
relative viability ([17]; first compound 0.6325 µM): 0.598
relative viability ([17]; first compound 2 µM): 0.477
relative viability ([18]; first compound 0.02 µM): 0.856
relative viability ([18]; first compound 0.2 µM): 0.658
relative viability ([18]; first compound 0.6325 µM): 0.897
relative viability ([18]; first compound 2 µM): 0.778
relative viability ([19]; first compound 0.02 µM): 0.612
relative viability ([19]; first compound 0.2 µM): 0.499
relative viability ([19]; first compound 0.6325 µM): 0.532
relative viability ([19]; first compound 2 µM): 0.45
relative viability ([20]; first compound 0.02 µM): 0.685
relative viability ([20]; first compound 0.2 µM): 0.681
relative viability ([20]; first compound 0.6325 µM): 0.721
relative viability ([20]; first compound 2 µM): 0.765
relative viability ([21]; first compound 0.02 µM): 0.819
relative viability ([21]; first compound 0.2 µM): 0.47
relative viability ([21]; first compound 0.6325 µM): 0.529
relative viability ([21]; first compound 2 µM): 0.477
relative viability ([22]; first compound 0.02 µM): 0.87
relative viability ([22]; first compound 0.2 µM): 0.729
relative viability ([22]; first compound 0.6325 µM): 0.753
relative viability ([22]; first compound 2 µM): 0.589
relative viability ([23]; first compound 0.02 µM): 0.376
relative viability ([23]; first compound 0.2 µM): 0.363
relative viability ([23]; first compound 0.6325 µM): 0.388
relative viability ([23]; first compound 2 µM): 0.253

CN1CCN(CCOc2cc(OC3CCOCC3)c3c(Nc4c(Cl)ccc5c4OCO5)ncnc3c2)CC1 [Saracatinib] + O=C(c1cc(Cc2n[nH]c(=O)c3ccccc23)ccc1F)N1CCN(C(=O)C2CC2)CC1 [Olaparib] (partner 8 µM)
relative viability ([1]; first compound 0.02 µM): 0.913
relative viability ([1]; first compound 0.2 µM): 0.595
relative viability ([1]; first compound 0.6325 µM): 0.775
relative viability ([1]; first compound 2 µM): 0.665
relative viability ([2]; first compound 0.02 µM): 0.733
relative viability ([2]; first compound 0.2 µM): 0.689
relative viability ([2]; first compound 0.6325 µM): 0.715
relative viability ([2]; first compound 2 µM): 0.71
relative viability ([3]; first compound 0.02 µM): 0.447
relative viability ([3]; first compound 0.2 µM): 0.319
relative viability ([3]; first compound 0.6325 µM): 0.346
relative viability ([3]; first compound 2 µM): 0.312
relative viability ([4]; first compound 0.02 µM): 0.891
relative viability ([4]; first compound 0.2 µM): 0.631
relative viability ([4]; first compound 0.6325 µM): 0.878
relative viability ([4]; first compound 2 µM): 0.311
relative viability ([5]; first compound 0.02 µM): 0.891
relative viability ([5]; first compound 0.6325 µM): 0.99
relative viability ([5]; first compound 2 µM): 0.673
relative viability ([6]; first compound 0.02 µM): 0.796
relative viability ([6]; first compound 0.2 µM): 0.71
relative viability ([6]; first compound 0.6325 µM): 0.758
relative viability ([6]; first compound 2 µM): 0.807
relative viability ([7]; first compound 0.02 µM): 0.494
relative viability ([7]; first compound 0.2 µM): 0.291
relative viability ([7]; first compound 0.6325 µM): 0.567
relative viability ([7]; first compound 2 µM): 0.32
relative viability ([8]; first compound 0.02 µM): 0.802
relative viability ([8]; first compound 0.2 µM): 0.505
relative viability ([8]; first compound 0.6325 µM): 0.437
relative viability ([8]; first compound 2 µM): 0.388
relative viability ([9]; first compound 0.02 µM): 0.862
relative viability ([9]; first compound 0.2 µM): 0.711
relative viability ([9]; first compound 0.6325 µM): 0.73
relative viability ([9]; first compound 2 µM): 0.613
relative viability ([10]; first compound 0.02 µM): 1.07
relative viability ([10]; first compound 0.2 µM): 0.916
relative viability ([10]; first compound 0.6325 µM): 1.09
relative viability ([10]; first compound 2 µM): 1.04
relative viability ([11]; first compound 0.02 µM): 0.784
relative viability ([11]; first compound 0.2 µM): 0.636
relative viability ([11]; first compound 0.6325 µM): 0.624
relative viability ([11]; first compound 2 µM): 0.569
relative viability ([12]; first compound 0.02 µM): 0.191
relative viability ([12]; first compound 0.2 µM): 0.16
relative viability ([12]; first compound 0.6325 µM): 0.162
relative viability ([12]; first compound 2 µM): 0.165
relative viability ([13]; first compound 0.02 µM): 0.872
relative viability ([13]; first compound 0.2 µM): 0.498
relative viability ([13]; first compound 0.6325 µM): 0.777
relative viability ([13]; first compound 2 µM): 0.564
relative viability ([14]; first compound 0.02 µM): 0.571
relative viability ([14]; first compound 0.2 µM): 0.428
relative viability ([14]; first compound 0.6325 µM): 0.622
relative viability ([14]; first compound 2 µM): 0.551
relative viability ([15]; first compound 0.02 µM): 0.386
relative viability ([15]; first compound 0.6325 µM): 0.391
relative viability ([15]; first compound 2 µM): 0.23
relative viability ([16]; first compound 0.02 µM): 0.873
relative viability ([16]; first compound 0.2 µM): 0.84
relative viability ([16]; first compound 0.6325 µM): 0.673
relative viability ([16]; first compound 2 µM): 0.595
relative viability ([17]; first compound 0.02 µM): 0.354
relative viability ([17]; first compound 0.2 µM): 0.327
relative viability ([17]; first compound 0.6325 µM): 0.289
relative viability ([17]; first compound 2 µM): 0.243
relative viability ([18]; first compound 0.02 µM): 0.679
relative viability ([18]; first compound 0.2 µM): 0.59
relative viability ([18]; first compound 0.6325 µM): 0.572
relative viability ([18]; first compound 2 µM): 0.534
relative viability ([19]; first compound 0.02 µM): 0.574
relative viability ([19]; first compound 0.2 µM): 0.539
relative viability ([19]; first compound 0.6325 µM): 0.406
relative viability ([19]; first compound 2 µM): 0.364
relative viability ([20]; first compound 0.02 µM): 0.776
relative viability ([20]; first compound 0.2 µM): 0.643
relative viability ([20]; first compound 0.6325 µM): 0.656
relative viability ([20]; first compound 2 µM): 0.505
relative viability ([21]; first compound 0.02 µM): 1.19
relative viability ([21]; first compound 0.2 µM): 0.993
relative viability ([21]; first compound 0.6325 µM): 0.746
relative viability ([21]; first compound 2 µM): 0.55
relative viability ([22]; first compound 0.02 µM): 1.09
relative viability ([22]; first compound 0.2 µM): 0.841
relative viability ([22]; first compound 0.6325 µM): 0.9
relative viability ([22]; first compound 2 µM): 0.977
relative viability ([23]; first compound 0.02 µM): 0.42
relative viability ([23]; first compound 0.2 µM): 0.306
relative viability ([23]; first compound 0.6325 µM): 0.362
relative viability ([23]; first compound 2 µM): 0.351
